Key:
Experiment in all cases: radiometric filter-binding kinase assay, Kinase HotSpot
Details in all cases: compound 0.5 µM; ATP 10 µM
TNK2 (human) = TNK2 (human) (UniProt Q07912)
ROCK1 (human) = ROCK1 (human) (UniProt Q13464)
IRAK1 (human) = IRAK1 (human) (UniProt P51617)
CDK7 CCNH MNAT1 (human) = CDK7 CCNH MNAT1 (human) (UniProt P50613+P51948+P51946)
ALK (human) = ALK (human) (UniProt Q9UM73)
OXSR1 (human) = OXSR1 (human) (UniProt O95747)
[1] = tested on: MKNK1 (human), Q9BUB5 [T385D; 165-205 del]
PDGFRA (human) = PDGFRA (human) (UniProt P16234)
NUAK2 (human) = NUAK2 (human) (UniProt Q9H093)
DAPK1 (human) = DAPK1 (human) (UniProt P53355)
STK4 (human) = STK4 (human) (UniProt Q13043)
CAMK2D (human) = CAMK2D (human) (UniProt Q13557)
BRSK2 (human) = BRSK2 (human) (UniProt Q8IWQ3)
TTK (human) = TTK (human) (UniProt P33981)
DSTYK (human) = DSTYK (human) (UniProt Q6XUX3)
DSTYK (human), sequence (Q6XUX3 whole entry, looked up): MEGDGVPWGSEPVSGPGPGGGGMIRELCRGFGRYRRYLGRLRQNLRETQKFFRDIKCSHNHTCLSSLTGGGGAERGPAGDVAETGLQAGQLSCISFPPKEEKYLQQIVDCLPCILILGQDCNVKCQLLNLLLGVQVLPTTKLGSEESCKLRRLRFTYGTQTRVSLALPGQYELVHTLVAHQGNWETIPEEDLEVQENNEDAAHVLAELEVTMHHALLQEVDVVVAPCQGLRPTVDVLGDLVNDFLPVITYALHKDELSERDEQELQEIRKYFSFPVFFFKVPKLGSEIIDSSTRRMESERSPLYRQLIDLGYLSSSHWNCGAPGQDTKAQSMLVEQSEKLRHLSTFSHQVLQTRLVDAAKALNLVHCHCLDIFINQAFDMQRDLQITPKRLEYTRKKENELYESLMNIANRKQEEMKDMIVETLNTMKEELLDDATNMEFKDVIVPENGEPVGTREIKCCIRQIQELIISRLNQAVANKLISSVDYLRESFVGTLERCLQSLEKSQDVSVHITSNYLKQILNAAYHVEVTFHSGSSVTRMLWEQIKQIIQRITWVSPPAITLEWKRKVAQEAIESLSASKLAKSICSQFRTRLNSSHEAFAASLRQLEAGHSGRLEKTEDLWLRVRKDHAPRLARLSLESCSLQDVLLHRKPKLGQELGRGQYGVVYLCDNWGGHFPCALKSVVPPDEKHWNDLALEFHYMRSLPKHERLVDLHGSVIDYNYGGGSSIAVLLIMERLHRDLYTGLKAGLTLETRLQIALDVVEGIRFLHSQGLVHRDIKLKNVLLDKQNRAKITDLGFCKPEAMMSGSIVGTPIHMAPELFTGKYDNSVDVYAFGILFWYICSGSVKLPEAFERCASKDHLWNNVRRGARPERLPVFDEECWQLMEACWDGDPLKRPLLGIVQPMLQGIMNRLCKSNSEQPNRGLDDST

DCLK2 (human) = DCLK2 (human) (UniProt Q8N568)
MAPK1 (human) = MAPK1 (human) (UniProt P28482)
CHEK1 (human) = CHEK1 (human) (UniProt O14757)
CDK4 CCND3 (human) = CDK4 CCND3 (human) (UniProt P30281+P11802)
FLT3 (human) = FLT3 (human) (UniProt P36888)
NEK3 (human) = NEK3 (human) (UniProt P51956)
ADRBK2 (human) = ADRBK2 (human) (UniProt P35626)
NLK (human) = NLK (human) (UniProt Q9UBE8)
[2] = tested on: FLT4 (human), P35916 [Q890H]
GSG2 (human) = GSG2 (human) (UniProt Q8TF76)
GSG2 (human), sequence (Q8TF76 whole entry, looked up): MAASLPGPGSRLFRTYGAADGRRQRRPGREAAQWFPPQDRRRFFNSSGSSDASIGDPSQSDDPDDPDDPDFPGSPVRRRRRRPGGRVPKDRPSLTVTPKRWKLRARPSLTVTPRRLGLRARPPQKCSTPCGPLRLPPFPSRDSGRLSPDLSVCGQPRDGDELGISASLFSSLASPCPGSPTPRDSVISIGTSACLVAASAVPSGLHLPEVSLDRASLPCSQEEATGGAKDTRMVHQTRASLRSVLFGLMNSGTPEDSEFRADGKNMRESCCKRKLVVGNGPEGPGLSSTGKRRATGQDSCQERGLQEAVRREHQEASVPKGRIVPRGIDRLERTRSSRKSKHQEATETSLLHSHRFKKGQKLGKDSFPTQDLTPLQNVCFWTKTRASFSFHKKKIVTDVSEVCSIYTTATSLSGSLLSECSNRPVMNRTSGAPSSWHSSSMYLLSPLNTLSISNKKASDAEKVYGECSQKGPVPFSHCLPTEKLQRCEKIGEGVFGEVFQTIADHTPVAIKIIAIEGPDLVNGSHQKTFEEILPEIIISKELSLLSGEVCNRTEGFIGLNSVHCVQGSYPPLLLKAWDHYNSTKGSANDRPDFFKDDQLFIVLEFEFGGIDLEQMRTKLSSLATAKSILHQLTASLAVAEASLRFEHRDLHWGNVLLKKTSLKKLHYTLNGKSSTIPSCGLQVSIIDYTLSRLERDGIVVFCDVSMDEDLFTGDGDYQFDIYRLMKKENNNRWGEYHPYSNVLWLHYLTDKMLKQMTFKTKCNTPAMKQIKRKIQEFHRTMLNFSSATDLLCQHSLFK

PBK (human) = PBK (human) (UniProt Q96KB5)
PBK (human), sequence (Q96KB5 whole entry, looked up): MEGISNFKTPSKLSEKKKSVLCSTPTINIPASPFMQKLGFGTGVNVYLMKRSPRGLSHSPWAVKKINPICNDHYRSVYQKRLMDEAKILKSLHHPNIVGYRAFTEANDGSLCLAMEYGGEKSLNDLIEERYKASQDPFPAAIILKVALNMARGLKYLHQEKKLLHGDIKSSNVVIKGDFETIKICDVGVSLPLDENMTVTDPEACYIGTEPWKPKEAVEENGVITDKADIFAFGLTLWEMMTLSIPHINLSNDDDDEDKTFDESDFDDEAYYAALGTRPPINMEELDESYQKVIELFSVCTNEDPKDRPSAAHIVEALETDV

WNK2 (human) = WNK2 (human) (UniProt Q9Y3S1)
MATK (human) = MATK (human) (UniProt P42679)
WEE1 (human) = WEE1 (human) (UniProt P30291)
DYRK3 (human) = DYRK3 (human) (UniProt O43781)
DYRK3 (human), sequence (O43781 whole entry, looked up): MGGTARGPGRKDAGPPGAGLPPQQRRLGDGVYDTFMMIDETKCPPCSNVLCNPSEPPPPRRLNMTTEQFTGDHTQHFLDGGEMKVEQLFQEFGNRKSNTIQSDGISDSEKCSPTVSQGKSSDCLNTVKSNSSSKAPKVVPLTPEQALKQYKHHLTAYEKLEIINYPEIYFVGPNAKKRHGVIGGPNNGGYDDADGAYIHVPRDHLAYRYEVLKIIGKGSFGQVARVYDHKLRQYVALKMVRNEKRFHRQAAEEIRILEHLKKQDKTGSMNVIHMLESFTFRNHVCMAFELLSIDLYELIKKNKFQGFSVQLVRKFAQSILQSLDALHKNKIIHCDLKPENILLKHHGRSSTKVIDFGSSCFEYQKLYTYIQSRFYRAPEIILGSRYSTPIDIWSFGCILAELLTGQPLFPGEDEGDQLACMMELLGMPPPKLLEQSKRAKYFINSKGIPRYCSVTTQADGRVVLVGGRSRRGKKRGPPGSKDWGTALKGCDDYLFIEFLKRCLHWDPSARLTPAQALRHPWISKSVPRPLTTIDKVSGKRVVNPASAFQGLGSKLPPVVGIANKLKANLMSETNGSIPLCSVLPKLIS

PHKG2 (human) = PHKG2 (human) (UniProt P15735)
RPS6KA3 KD1 KD2 (human) = RPS6KA3 KD1 KD2 (human) (UniProt P51812)
RPS6KA3 KD1 KD2 (human), sequence (P51812 whole entry, looked up): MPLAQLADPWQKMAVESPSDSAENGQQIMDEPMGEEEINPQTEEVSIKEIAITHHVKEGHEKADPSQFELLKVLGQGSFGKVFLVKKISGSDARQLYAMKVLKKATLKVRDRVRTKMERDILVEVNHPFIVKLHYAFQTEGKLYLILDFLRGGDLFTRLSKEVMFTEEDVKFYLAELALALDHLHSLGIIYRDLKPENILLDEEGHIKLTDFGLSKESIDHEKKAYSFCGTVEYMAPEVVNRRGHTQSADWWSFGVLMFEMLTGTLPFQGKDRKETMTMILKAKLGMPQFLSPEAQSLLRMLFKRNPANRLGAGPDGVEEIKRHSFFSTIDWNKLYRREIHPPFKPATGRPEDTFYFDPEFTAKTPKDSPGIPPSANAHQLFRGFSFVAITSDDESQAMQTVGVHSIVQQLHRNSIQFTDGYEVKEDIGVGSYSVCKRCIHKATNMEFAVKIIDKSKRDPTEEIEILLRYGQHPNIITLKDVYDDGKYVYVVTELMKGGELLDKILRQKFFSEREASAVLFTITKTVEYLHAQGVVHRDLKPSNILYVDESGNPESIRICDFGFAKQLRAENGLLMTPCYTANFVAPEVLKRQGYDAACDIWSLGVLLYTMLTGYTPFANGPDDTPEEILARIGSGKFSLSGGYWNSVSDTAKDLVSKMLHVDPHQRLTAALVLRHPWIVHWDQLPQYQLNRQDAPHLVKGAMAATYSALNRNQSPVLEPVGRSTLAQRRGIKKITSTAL

AKT2 (human) = AKT2 (human) (UniProt P31751)
SIK2 (human) = SIK2 (human) (UniProt Q9H0K1)
SIK2 (human), sequence (Q9H0K1 whole entry, looked up): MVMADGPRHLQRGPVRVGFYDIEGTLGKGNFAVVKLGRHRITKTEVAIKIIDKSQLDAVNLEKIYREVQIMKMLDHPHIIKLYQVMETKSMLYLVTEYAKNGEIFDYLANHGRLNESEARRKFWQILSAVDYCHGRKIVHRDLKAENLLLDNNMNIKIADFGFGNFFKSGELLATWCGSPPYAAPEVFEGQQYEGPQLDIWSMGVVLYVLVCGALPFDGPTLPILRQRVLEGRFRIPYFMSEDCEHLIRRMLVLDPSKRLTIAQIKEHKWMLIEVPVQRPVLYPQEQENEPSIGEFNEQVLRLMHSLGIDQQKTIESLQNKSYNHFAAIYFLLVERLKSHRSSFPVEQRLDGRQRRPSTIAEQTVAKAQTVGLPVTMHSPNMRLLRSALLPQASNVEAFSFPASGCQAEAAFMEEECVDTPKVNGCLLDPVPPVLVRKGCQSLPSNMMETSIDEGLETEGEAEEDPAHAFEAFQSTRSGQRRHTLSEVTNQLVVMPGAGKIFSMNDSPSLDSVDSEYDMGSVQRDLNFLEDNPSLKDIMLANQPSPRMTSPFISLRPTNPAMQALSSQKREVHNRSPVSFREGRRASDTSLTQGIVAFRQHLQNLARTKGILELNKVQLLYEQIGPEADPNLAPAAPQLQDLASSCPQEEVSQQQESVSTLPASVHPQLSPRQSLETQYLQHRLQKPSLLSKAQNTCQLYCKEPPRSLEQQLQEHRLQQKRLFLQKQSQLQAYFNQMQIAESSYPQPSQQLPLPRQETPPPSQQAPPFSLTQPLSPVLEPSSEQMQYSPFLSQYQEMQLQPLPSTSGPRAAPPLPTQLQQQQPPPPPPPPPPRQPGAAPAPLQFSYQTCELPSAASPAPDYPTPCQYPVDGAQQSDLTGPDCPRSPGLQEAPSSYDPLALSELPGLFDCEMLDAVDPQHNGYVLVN

CDK4 CCND1 (human) = CDK4 CCND1 (human) (UniProt P24385+P11802)
MARK1 (human) = MARK1 (human) (UniProt Q9P0L2)
SRPK2 (human) = SRPK2 (human) (UniProt P78362)
SRPK2 (human), sequence (P78362 whole entry, looked up): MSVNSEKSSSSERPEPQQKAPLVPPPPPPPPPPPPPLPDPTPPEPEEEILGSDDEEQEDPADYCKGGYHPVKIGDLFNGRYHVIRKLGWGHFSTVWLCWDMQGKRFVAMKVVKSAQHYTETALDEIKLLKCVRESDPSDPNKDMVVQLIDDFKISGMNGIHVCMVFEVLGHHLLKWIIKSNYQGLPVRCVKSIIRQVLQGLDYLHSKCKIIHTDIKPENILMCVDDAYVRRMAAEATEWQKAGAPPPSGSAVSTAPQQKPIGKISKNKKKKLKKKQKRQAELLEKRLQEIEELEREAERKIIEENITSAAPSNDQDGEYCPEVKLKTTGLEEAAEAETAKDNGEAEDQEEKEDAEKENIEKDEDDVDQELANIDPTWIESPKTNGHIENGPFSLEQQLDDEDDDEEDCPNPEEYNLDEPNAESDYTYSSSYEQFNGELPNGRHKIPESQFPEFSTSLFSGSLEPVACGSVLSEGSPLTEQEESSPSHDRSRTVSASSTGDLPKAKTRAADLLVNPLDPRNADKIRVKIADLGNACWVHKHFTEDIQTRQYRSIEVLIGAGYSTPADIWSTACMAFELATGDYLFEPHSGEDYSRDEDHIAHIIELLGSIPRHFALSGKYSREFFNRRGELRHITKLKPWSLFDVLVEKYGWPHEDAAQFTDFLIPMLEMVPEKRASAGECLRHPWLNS

## CC(C)(C)c1cc(C=C(C#N)C#N)cc(Br)c1O
TNK2 (human)
  residual activity: 93.1%
ROCK1 (human)
  residual activity: 82.9%
IRAK1 (human)
  residual activity: 105%
CDK7 CCNH MNAT1 (human)
  residual activity: 98.5%
ALK (human)
  residual activity: 97.9%
OXSR1 (human)
  residual activity: 98%
[1]
  residual activity: 95.9%
PDGFRA (human)
  residual activity: 95.4%
NUAK2 (human)
  residual activity: 99.6%
DAPK1 (human)
  residual activity: 85.9%
STK4 (human)
  residual activity: 90.5%
CAMK2D (human)
  residual activity: 96%
BRSK2 (human)
  residual activity: 94.5%
TTK (human)
  residual activity: 101%
DSTYK (human)
  residual activity: 105%
DCLK2 (human)
  residual activity: 109%
MAPK1 (human)
  residual activity: 91.3%
CHEK1 (human)
  residual activity: 100%
CDK4 CCND3 (human)
  residual activity: 96.5%
FLT3 (human)
  residual activity: 102%
NEK3 (human)
  residual activity: 96.6%
ADRBK2 (human)
  residual activity: 98%
NLK (human)
  residual activity: 93.6%
[2]
  residual activity: 102%
GSG2 (human)
  residual activity: 67.2%
PBK (human)
  residual activity: 102%
WNK2 (human)
  residual activity: 126%
MATK (human)
  residual activity: 102%
WEE1 (human)
  residual activity: 90.9%
DYRK3 (human)
  residual activity: 102%
PHKG2 (human)
  residual activity: 106%
RPS6KA3 KD1 KD2 (human)
  residual activity: 92.2%
AKT2 (human)
  residual activity: 97.7%
SIK2 (human)
  residual activity: 115%
CDK4 CCND1 (human)
  residual activity: 115%
MARK1 (human)
  residual activity: 98.8%
SRPK2 (human)
  residual activity: 109%

## O=C(c1cc2cc(O)ccc2[nH]1)c1cc2cc(O)ccc2[nH]1
TNK2 (human)
  residual activity: 90.6%
ROCK1 (human)
  residual activity: 96.2%
IRAK1 (human)
  residual activity: 98.1%
CDK7 CCNH MNAT1 (human)
  residual activity: 93.5%
ALK (human)
  residual activity: 97%
OXSR1 (human)
  residual activity: 105%
[1]
  residual activity: 83.6%
PDGFRA (human)
  residual activity: 65.3%
NUAK2 (human)
  residual activity: 95.7%
DAPK1 (human)
  residual activity: 101%
STK4 (human)
  residual activity: 33.7%
CAMK2D (human)
  residual activity: 63.7%
BRSK2 (human)
  residual activity: 44.3%
TTK (human)
  residual activity: 92.9%
DSTYK (human)
  residual activity: 95.5%
DCLK2 (human)
  residual activity: 88.4%
MAPK1 (human)
  residual activity: 113%
CHEK1 (human)
  residual activity: 82.5%
CDK4 CCND3 (human)
  residual activity: 105%
FLT3 (human)
  residual activity: 3.53%
NEK3 (human)
  residual activity: 111%
ADRBK2 (human)
  residual activity: 102%
NLK (human)
  residual activity: 83.2%
[2]
  residual activity: 67.1%
GSG2 (human)
  residual activity: 34.8%
PBK (human)
  residual activity: 100%
WNK2 (human)
  residual activity: 96.6%
MATK (human)
  residual activity: 93.3%
WEE1 (human)
  residual activity: 90.6%
DYRK3 (human)
  residual activity: 115%
PHKG2 (human)
  residual activity: 105%
RPS6KA3 KD1 KD2 (human)
  residual activity: 37.7%
AKT2 (human)
  residual activity: 104%
SIK2 (human)
  residual activity: 78.3%
CDK4 CCND1 (human)
  residual activity: 91.5%
MARK1 (human)
  residual activity: 66.3%
SRPK2 (human)
  residual activity: 97.1%

## COc1cc2ncnc(Nc3ccc(OCc4ccccc4)cc3)c2cc1OC
TNK2 (human)
  residual activity: 53.1%
ROCK1 (human)
  residual activity: 96.6%
IRAK1 (human)
  residual activity: 97.4%
CDK7 CCNH MNAT1 (human)
  residual activity: 98.8%
ALK (human)
  residual activity: 103%
OXSR1 (human)
  residual activity: 110%
[1]
  residual activity: 101%
PDGFRA (human)
  residual activity: 91.3%
NUAK2 (human)
  residual activity: 101%
DAPK1 (human)
  residual activity: 98.5%
STK4 (human)
  residual activity: 101%
CAMK2D (human)
  residual activity: 95.8%
BRSK2 (human)
  residual activity: 98.7%
TTK (human)
  residual activity: 96.8%
DSTYK (human)
  residual activity: 95.9%
DCLK2 (human)
  residual activity: 102%
MAPK1 (human)
  residual activity: 100%
CHEK1 (human)
  residual activity: 101%
CDK4 CCND3 (human)
  residual activity: 102%
FLT3 (human)
  residual activity: 56.4%
NEK3 (human)
  residual activity: 99.1%
ADRBK2 (human)
  residual activity: 99.6%
NLK (human)
  residual activity: 96.5%
[2]
  residual activity: 98.9%
GSG2 (human)
  residual activity: 86.2%
PBK (human)
  residual activity: 109%
WNK2 (human)
  residual activity: 91.6%
MATK (human)
  residual activity: 97.5%
WEE1 (human)
  residual activity: 94.7%
DYRK3 (human)
  residual activity: 101%
PHKG2 (human)
  residual activity: 97.4%
RPS6KA3 KD1 KD2 (human)
  residual activity: 103%
AKT2 (human)
  residual activity: 101%
SIK2 (human)
  residual activity: 73.7%
CDK4 CCND1 (human)
  residual activity: 99.2%
MARK1 (human)
  residual activity: 103%
SRPK2 (human)
  residual activity: 92.3%

## Cn1c2ccccc2c2c3c(c4c5ccccc5n(CCC#N)c4c21)CNC3=O
TNK2 (human)
  residual activity: 2.78%
ROCK1 (human)
  residual activity: 61.9%
IRAK1 (human)
  residual activity: 6.43%
CDK7 CCNH MNAT1 (human)
  residual activity: 84.6%
ALK (human)
  residual activity: 12.2%
OXSR1 (human)
  residual activity: 102%
[1]
  residual activity: 75.2%
PDGFRA (human)
  residual activity: 83.5%
NUAK2 (human)
  residual activity: 40.5%
DAPK1 (human)
  residual activity: 102%
STK4 (human)
  residual activity: 3.73%
CAMK2D (human)
  residual activity: 20.3%
BRSK2 (human)
  residual activity: 26.3%
TTK (human)
  residual activity: 69%
DSTYK (human)
  residual activity: 9.91%
DCLK2 (human)
  residual activity: 84.7%
MAPK1 (human)
  residual activity: 104%
CHEK1 (human)
  residual activity: 7.95%
CDK4 CCND3 (human)
  residual activity: 44.5%
FLT3 (human)
  residual activity: 5.27%
NEK3 (human)
  residual activity: 133%
ADRBK2 (human)
  residual activity: 106%
NLK (human)
  residual activity: 57.3%
[2]
  residual activity: 38.2%
GSG2 (human)
  residual activity: 27.2%
PBK (human)
  residual activity: 84.2%
WNK2 (human)
  residual activity: 103%
MATK (human)
  residual activity: 100%
WEE1 (human)
  residual activity: 85.4%
DYRK3 (human)
  residual activity: 83.9%
PHKG2 (human)
  residual activity: 8.4%
RPS6KA3 KD1 KD2 (human)
  residual activity: 5.93%
AKT2 (human)
  residual activity: 110%
SIK2 (human)
  residual activity: 54.5%
CDK4 CCND1 (human)
  residual activity: 27.5%
MARK1 (human)
  residual activity: 20.8%
SRPK2 (human)
  residual activity: 95%

## NC(=O)c1cccc(-c2cc(Nc3ccc(OC(F)(F)F)cc3)ncn2)c1
TNK2 (human)
  residual activity: 98.5%
ROCK1 (human)
  residual activity: 96.8%
IRAK1 (human)
  residual activity: 101%
ALK (human)
  residual activity: 103%
OXSR1 (human)
  residual activity: 97.9%
[1]
  residual activity: 95.9%
PDGFRA (human)
  residual activity: 91.8%
NUAK2 (human)
  residual activity: 87.8%
DAPK1 (human)
  residual activity: 81.1%
STK4 (human)
  residual activity: 88.7%
CAMK2D (human)
  residual activity: 90.8%
BRSK2 (human)
  residual activity: 93%
TTK (human)
  residual activity: 91.4%
DSTYK (human)
  residual activity: 95.8%
DCLK2 (human)
  residual activity: 104%
MAPK1 (human)
  residual activity: 96.6%
CHEK1 (human)
  residual activity: 94.2%
CDK4 CCND3 (human)
  residual activity: 98.4%
FLT3 (human)
  residual activity: 98.9%
NEK3 (human)
  residual activity: 121%
ADRBK2 (human)
  residual activity: 80.5%
NLK (human)
  residual activity: 93.4%
[2]
  residual activity: 98.5%
GSG2 (human)
  residual activity: 105%
PBK (human)
  residual activity: 72.2%
WNK2 (human)
  residual activity: 115%
MATK (human)
  residual activity: 100%
WEE1 (human)
  residual activity: 98.9%
DYRK3 (human)
  residual activity: 99.9%
PHKG2 (human)
  residual activity: 103%
RPS6KA3 KD1 KD2 (human)
  residual activity: 101%
AKT2 (human)
  residual activity: 105%
SIK2 (human)
  residual activity: 108%
CDK4 CCND1 (human)
  residual activity: 99.8%
MARK1 (human)
  residual activity: 94.7%
SRPK2 (human)
  residual activity: 105%

Source: the kinase profiling compilation of Christmann-Franck et al. (2016)
